This note sets out measurements from patent publication US11541050B2, “Pyrimidine derivatives for the treatment of viral infections” (JANSSEN SCIENCES IRELAND UC, priority 2011, dated 2023).

Common to all, as to type: cell-based
Common to all, as to design: unit not given here

Test [1] has as its system human TLR7 mutant sequence comprising a deletion in the second leucine-rich repeat. Briefly: TLR7 cellular NFκB-luc reporter assay, mutant TLR7 with deletion in the second leucine-rich repeat. Conditions: lowest effective concentration. The protocol: (§1) The ability of compounds to activate human TLR7 and/or TLR8 was assessed in a cellular reporter assay using HEK293 cells transiently transfected with a TLR7 or TLR8 expression vector and NFκB-luc reporter construct. In one instance the TLR expression construct expresses the respective wild type sequence or a mutant sequence comprising a deletion in the second leucine-rich repeat of the TLR.
(§2) Briefly, HEK293 cells were grown in culture medium (DMEM supplemented with 10% FCS and 2 mM Glutamine). For transfection of cells in 10 cm dishes, cells were detached with Trypsin-EDTA, transfected with a mix of CMV-TLR7 or TLR8 plasmid (750 ng), NFκB-luc plasmid (375 ng) and a transfection reagent and incubated for 48 hours at 37° C. in a humidified 5% CO2 atmosphere. […] Thirty microliters of cells were then dispensed into each well in 384-well plates, where 10 μL of compound in 4% DMSO was already present. Following 6 hours incubation at 37° C., 5% CO2, the luciferase activity was determined by adding 15 μl of Steady Lite Plus substrate (Perkin Elmer) to each well and readout performed on a ViewLux ultraHTS microplate imager (Perkin Elmer). Dose response curves were generated from measurements performed in quadruplicates.
(In a reporter assay the amount or activity of a reporter protein is the signal.)

Test [2] deals with T1, human TLR7 (wild type sequence) (Homo sapiens, UniProt Q9NYK1).
T1 construct: expressed in transfected cells; host or cells: HEK293
T1 sequence (Q9NYK1 27-1049): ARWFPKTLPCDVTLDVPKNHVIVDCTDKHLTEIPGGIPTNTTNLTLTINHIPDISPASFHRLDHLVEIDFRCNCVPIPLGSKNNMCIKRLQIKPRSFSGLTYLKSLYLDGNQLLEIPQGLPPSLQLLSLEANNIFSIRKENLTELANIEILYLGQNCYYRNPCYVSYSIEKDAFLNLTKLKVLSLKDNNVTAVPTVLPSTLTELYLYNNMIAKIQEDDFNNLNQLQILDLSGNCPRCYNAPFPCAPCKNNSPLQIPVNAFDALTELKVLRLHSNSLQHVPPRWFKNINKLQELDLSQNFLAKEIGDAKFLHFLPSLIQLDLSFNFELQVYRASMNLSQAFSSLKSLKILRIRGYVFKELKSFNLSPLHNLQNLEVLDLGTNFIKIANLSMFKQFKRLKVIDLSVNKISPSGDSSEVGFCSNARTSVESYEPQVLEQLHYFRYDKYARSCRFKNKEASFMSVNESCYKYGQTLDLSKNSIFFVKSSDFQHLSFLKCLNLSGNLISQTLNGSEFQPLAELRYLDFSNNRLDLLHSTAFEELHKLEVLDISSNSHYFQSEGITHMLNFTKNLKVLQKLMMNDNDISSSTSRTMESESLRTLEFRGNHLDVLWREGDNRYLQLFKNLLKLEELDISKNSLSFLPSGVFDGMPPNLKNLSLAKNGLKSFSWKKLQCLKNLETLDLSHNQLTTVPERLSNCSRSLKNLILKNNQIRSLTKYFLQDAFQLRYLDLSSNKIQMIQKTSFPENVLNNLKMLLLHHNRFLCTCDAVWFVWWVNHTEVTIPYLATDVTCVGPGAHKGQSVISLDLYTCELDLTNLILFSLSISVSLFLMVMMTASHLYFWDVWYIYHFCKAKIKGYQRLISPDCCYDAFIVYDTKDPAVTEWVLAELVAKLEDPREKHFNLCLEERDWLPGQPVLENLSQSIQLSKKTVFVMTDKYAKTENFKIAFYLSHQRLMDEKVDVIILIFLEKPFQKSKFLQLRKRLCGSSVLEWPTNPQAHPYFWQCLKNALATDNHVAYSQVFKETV
Kind of test: TLR7 cellular NFκB-luc reporter assay, wild type TLR7. The settings on record: lowest effective concentration, wild type TLR7. In short, it runs like this: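 Luciferase signal read after 6 h compound incubation at 37 °C in HEK293 cells carrying transiently transfected TLR7 or TLR8 (wild type or LRR2-deletion) and NFκB-luc. Values are lowest effective concentrations from quadruplicate dose-response curves, effect ≥2-fold above assay SD.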

Test [3] deals with human TLR8 mutant sequence comprising a deletion in the second leucine-rich repeat. Kind of test: TLR8 cellular NFκB-luc reporter assay, mutant TLR8 with deletion in the second leucine-rich repeat. Conditions: lowest effective concentration. The protocol: as §1, §2

Structures are written as SMILES. Where only a bound is given, the exact number is not on record here.

In the case of `CCCCNc1nc(N)ncc1OCC(CC)OC` (stereo not drawn) [Compound 288], the TLR7-dIRR2_LEC in test [1] is 10.200. For the same compound, in test [2], the TLR7-wt_LEC is recorded as above 25. In test [3], this compound had a TLR8-dIRR2_LEC of 14.890.

Take `CCCC[C@@H](CCO)Nc1nc(N)ncc1OCc1nnn[nH]1` [Compound 297]: the TLR7-dIRR2_LEC in test [1] is above 25. The TLR7-wt_LEC in test [2] came to 2.810. Moreover, in test [3], the TLR8-dIRR2_LEC worked out at 2.540.

In test [1], `CCCC[C@@H](CCO)Nc1nc(N)ncc1OCc1cccnc1` [Compound 272] came in with a TLR7-dIRR2_LEC of 1.110. The compound further came in with a TLR7-wt_LEC in test [2] of 0.207. In test [3], this compound gave a TLR8-dIRR2_LEC of 0.084.

In test [1], `CCCC[C@@H](CCO)Nc1nc(N)ncc1OCc1cc2ccccc2cn1` [Compound 223] yielded a TLR7-dIRR2_LEC of 1.400. The same compound gave a TLR7-wt_LEC in test [2] of 0.100. The compound further yielded a TLR8-dIRR2_LEC in test [3] of 0.033.

As for `CCCC[C@@H](CO)Nc1nc(N)ncc1OCc1cccnc1` [Compound 274], in test [1], the TLR7-dIRR2_LEC was found to be 0.303. This compound also yielded a TLR7-wt_LEC in test [2] of 1.140. This compound also returned a TLR8-dIRR2_LEC in test [3] of 0.357.

Take `CCCC[C@@H](CCO)Nc1nc(N)ncc1OCc1cccc(C(N)=O)n1` [Compound 282]: the TLR7-dIRR2_LEC in test [1] was 0.502. In test [2], the TLR7-wt_LEC is 0.133. Moreover, the TLR8-dIRR2_LEC in test [3] was 0.005.

In test [1], `CCC[C@@H](C)Nc1nc(N)ncc1OCc1nccc2ccccc12` [Compound 219] returned a TLR7-dIRR2_LEC of 1.640. This compound displayed a TLR7-wt_LEC in test [2] of 0.125. Besides, the TLR8-dIRR2_LEC in test [3] worked out at 0.029.

`CCCCNc1nc(N)ncc1OCCCC(=O)OC(C)C` [Compound 221] yielded a TLR7-dIRR2_LEC in test [1] of 0.859. This compound also had a TLR7-wt_LEC in test [2] of 0.654. For the same compound, the TLR8-dIRR2_LEC in test [3] is on record as 0.496.

Take `CCCC[C@@H](CO)Nc1nc(N)ncc1OCc1ccccn1` [Compound 243]: in test [1], the TLR7-dIRR2_LEC was 0.103. Moreover, in test [2], the TLR7-wt_LEC turned out to be 0.343. Further, the TLR8-dIRR2_LEC in test [3] was determined as 0.190.

In test [1], `CCCCNc1nc(N)ncc1OCc1ccc(CO)cc1` [Compound 281] came in with a TLR7-dIRR2_LEC of 1.630. Further, in test [2], the TLR7-wt_LEC stood at 0.472. For the same compound, the TLR8-dIRR2_LEC in test [3] was 0.191.

The compound `CCC[C@@H](CCO)Nc1nc(N)ncc1OCCOC(C)C` [Compound 301] returned a TLR7-dIRR2_LEC in test [1] of 2.640. In test [2], this compound returned a TLR7-wt_LEC of 1.170. In test [3], this compound displayed a TLR8-dIRR2_LEC of 0.534.

Regarding `CCC[C@@H](CO)Nc1nc(N)ncc1OCc1nccc(OC)c1OC` [Compound 214], the TLR7-dIRR2_LEC in test [1] stood at 0.593. In test [2], the TLR7-wt_LEC is on record as 0.134. Besides, in test [3], the TLR8-dIRR2_LEC was 0.027.

In turn, `CCCCNc1nc(N)ncc1OCCNC(=O)OCC` [Compound 232] gave a TLR7-dIRR2_LEC in test [1] of 1.680. For the same compound, the TLR7-wt_LEC in test [2] was 0.967. For the same compound, in test [3], the TLR8-dIRR2_LEC stood at 0.110.

With `CCCCNc1nc(N)ncc1O[C@@H](C)c1ccccn1` [Compound 262], in test [1], the TLR7-dIRR2_LEC worked out at 0.168. Besides, the TLR7-wt_LEC in test [2] stood at 0.658. Also, the TLR8-dIRR2_LEC in test [3] is 0.363.

Take `CCC[C@@H](CCO)Nc1nc(N)ncc1O[C@H]1CCc2c(Cl)ccnc21` [Compound 284]: the TLR7-dIRR2_LEC in test [1] came to 10.300. The TLR7-wt_LEC in test [2] came out at 9.910. Also, the TLR8-dIRR2_LEC in test [3] came out at 2.150.

On to `CCCC[C@@H](CCO)Nc1nc(N)ncc1OCc1ncccc1OC` [Compound 241], for which, in test [1], the TLR7-dIRR2_LEC is listed as 0.304. The TLR7-wt_LEC in test [2] was 0.008. The TLR8-dIRR2_LEC in test [3] worked out at 0.004.

As to `CCCC(C)Nc1nc(N)ncc1OCCOC` (stereo not drawn) [Compound 267], the TLR7-dIRR2_LEC in test [1] is reported as 0.719. The compound further yielded a TLR7-wt_LEC in test [2] of 4.880. The TLR8-dIRR2_LEC in test [3] is 1.710.

In test [1], `CCCC[C@@H](CO)Nc1nc(N)ncc1OCc1cccc(C(=O)O)n1` [Compound 259] came in with a TLR7-dIRR2_LEC of 3.150. This compound showed a TLR7-wt_LEC in test [2] of 6.980. Further, the TLR8-dIRR2_LEC in test [3] came out at 1.250.

`CCC[C@@H](CCO)Nc1nc(N)ncc1OCc1cc2ccccc2cn1` [Compound 249]: in test [1], the TLR7-dIRR2_LEC is 0.172. For the same compound, the TLR7-wt_LEC in test [2] was 0.039. Besides, in test [3], the TLR8-dIRR2_LEC is recorded as 0.036.
